In patent US8110570B2, “Modulators of acetyl-coenzyme A carboxylase and methods of use thereof” (Cropsolution, Inc., priority 2008, dated 2012):
pIC50: −log10 of the molar value.

Assays:
C2C12 cells = experiment: Fatty acid oxidation assay, [1-14C]palmitate to CO2; assay type: cell-based, mouse; conditions: compared to untreated controls
From the text: (§1) The in vivo ACC inhibitory activity of compounds in this invention can be confirmed in cultured cells using standard procedures that are well known to those skilled in the art. For example, since ACC catalyzes the first committed step in fatty acid biosynthesis, the in vivo activity of compounds can be confirmed by measuring their ability to prevent the formation of radiolabeled fatty acids from radiolabeled acetate in cultured human hepatoma cells (HepG2). In addition, since the malonyl-CoA produced by ACC inhibits fatty acid oxidation, the in vivo ACC inhibitory activity of compounds can be further confirmed by measuring the stimulation of fatty acid oxidation in cultured mouse myoblast cells (C2C12).
Fatty acid oxidation assays are performed essentially as described (Beckers et al., Cancer Res, 2007, 67: 8180-8187). Briefly, C2C12 cells are plated at 600,000 cells/T25 flask. The next day, media is changed and the DMSO with or without test compound is added to a final concentration of 0.5% (v/v). After 1 h at 37° C. in atmosphere of 5% CO2, freshly made 2 uCi of FA-free bovine serum albumin-[1-^14C] palmitate complex is added to each flask. The flasks are then sealed with a stopper and incubated 6 h at 37° C. after which evolved CO2 is liberated by injection of perchloric acid to final concentration of 5% and captured by incubating the flasks overnight in the presence of filter paper soaked with 5% KOH. The filters are then air-dried and incubated with scintillation cocktail overnight for equilibrium. Radioactivity is quantified by scintillation counting.

[1] = target: uACC (Ustilago maydis ACC) (Ustilago maydis, UniProt A0A0D1DYD5); experiment: [14C]bicarbonate incorporation assay, overall ACC activity; assay type: biochemical
hACC1 = target: T1, hACC1 (Homo sapiens, UniProt Q13085); experiment: as above; assay type: biochemical; conditions: recombinant hACC1, overall ACC activity
T1 construct: PCR primers were designed for full-length hACC1 and hACC2 using GenBank submissions AY237919 and AJ575592, respectively; His tag (C); made in house; host or cells: baculovirus, Sf9 insect cells
Procedure, shortened: (§2)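 His-tagged full-length hACC1 or hACC2 (residues 1-148 deleted, Met-Gly added), expressed in sf9 cells with biotin and purified, were assayed by [14C]bicarbonate incorporation into acetyl-CoA. Reactions at pH 7.4 with 2 mM acetyl-CoA, 12 mM NaHCO3 and 1% DMSO were started with 2 mM ATP and run 10 min at 37° C. Acid-stable label was counted and IC50 obtained from dose-response fits.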

hACC2 = target: T2, hACC2 (Homo sapiens, UniProt O00763); experiment: as above; assay type: biochemical; conditions: recombinant hACC2, overall ACC activity
T2 construct: delete amino acids 1-148 and add Met-Gly in front of Lys149 in the final product; His tag (C); made in house; host or cells: baculovirus, Sf9 insect cells
Procedure, shortened: as §2

HepG2 cells = experiment: Fatty acid synthesis assay, 14C-acetate incorporation into phospholipids; assay type: cell-based; conditions: Homo sapiens, 24 h, read-out: inhibition of radiolabel incorporation into phospholipids
From the text: as §1
Fatty acid synthesis assays are performed with slight modifications to published procedures (Beckers et al., Cancer Res, 2007, 67: 8180-8187; Wang, J Lipid Res., 2006, 47:2028-41). Briefly, HepG2 cells are grown in Dulbecco's modified eagles medium containing 10% fetal calf serum in 6-well culture plates. Cells are treated for 24 h with test compounds added as DMSO stock solutions to a final DMSO concentration of 0.5% (v/v). After test compound incubation, ^14C—[2]-acetate is added (3 μCi/6 well plate) and cells are further incubated for 4 hrs. Cells are then harvested in 40% methanol and assayed for total protein. Total lipids are extracted with chloroform:methanol (2:1) and ^14C-radioactivity is quantified in the aqueous and organic phases. Total lipids in the organic phase are separated by thin-layer chromatography (TLC, silica gel 60A) using hexane:ether:acetic acid (90:30:1) as the mobile phase. Radioactivity distribution of lipid classes on TLC plates is quantified by phosphorimaging (Molecular Dynamics Storm 820). Compound 6 inhibited radiolabel incorporation into phospholipids 32% and 14% at 10 μM and 1 μM, respectively, while Compound 2 inhibited radiolabel incorporation into phospholipids 93% and 42% at 10 μM and 1 μM, respectively.

hACC1-CT = target: T3, hACC1-CT (Homo sapiens, UniProt Q13085); experiment: acetyl-CoA/malonyl-CoA isotope exchange assay, CT half-reaction; assay type: biochemical
T3 construct: PCR primers were designed for full-length hACC1 and hACC2 using GenBank submissions AY237919 and AJ575592, respectively; His tag (C); made in house; host or cells: baculovirus, Sf9 insect cells
Method: Overall ACC activity is comprised of two half-reactions, the BC reaction (the ATP-dependent carboxylation of biotin) and the CT reaction (the transfer of the carboxyl group from biotin to acetyl-CoA to form malonyl-CoA). Thus, it is of interest to localize the site of action of ACC inhibitors. To this end, representative compounds are tested in an acetyl-CoA/malonyl-CoA isotope exchange reaction which specifically measures the CT-half reaction. This assay is performed with slight modifications of published procedures (Gregolin et al., J Biol Chem, 1968, 243:4227-4235; Rendina et al., J Agric Food Chem, 1990, 38:1282-1287). Briefly, the reaction mixture (50 μL) contained 50 mM Hepes (pH 7.4), 20 mM K-citrate, 1.5 mM MgSO4, 4 mM malonyl-CoA, 1.67 mM acetyl-CoA, 0.34 mM [^14C]acetyl-CoA (about 60 mCi/mmol), 0.75 mg/mL BSA, and 1% (v/v) DMSO with or without inhibitor. Reactions are initiated by the addition of hACCl (0.3 μg) or hACC2 (0.15 μg) enzyme and incubated at 37° C. for 10 min. Reactions are stopped by addition of a 0.2M sodium arsenate solution containing 1U of phosphotransacetylase (13.5 μL) and incubation at room temperature for 30 min. […] The samples are then resuspended in water (200 μL), added to scintillation cocktail (3 mL), and counted in a scintillation counter to quantify radiolabel incorporated into malonyl-CoA. […]

[2] = test system: hepatic fatty acid synthesis; experiment: In vivo inhibition of rat hepatic fatty acid synthesis; conditions: oral
Method: In vivo measurement of fatty acid synthesis inhibition in mammals. Incorporation of [2-^14C]acetate into saponifiable lipids in the livers of mammals (e.g. Sprague Dawley rats, Charles River Laboratories, Boston, Mass. or Harlan Laboratories, Indianapolis, Ind.) can be measured as described previously (Harwood Jr. H. J. et al., J Biol Chem, 39: 37099-37111 (2003)). For example, animals given food and water ad libitum are treated orally at volume of 1.0 ml/200 g of body weight with either an aqueous solution containing 0.5% methyl cellulose (vehicle) or an aqueous solution containing 0.5% methyl cellulose containing test compound. One hour after compound administration, animals receive an intraperitoneal injection of [2-^14C]acetate (0.02 mL, 1 mCi/mL; 50 mCi/mmol. One hour after radiolabel administration, animals are sacrificed by CO2 asphyxiation, and two liver pieces (about 0.75 g each) are removed and saponified at 70° C. for 120 min in 2.5 M NaOH (1.5 mL). After saponification, absolute EtOH (2.5 mL) is added to each sample and the solutions are mixed and allowed to stand overnight. Petroleum ether (4.8 mL) is then added to each sample, and after vigorous shaking (2 min) the mixtures are centrifuged at 1000×g (5 min). The petroleum ether layer containing the nonsaponifiable lipids is removed and discarded. The remaining aqueous layer is acidified (pH<2) by addition of 12 M HCl (0.6 mL) and extracted two times with petroleum ether (4.8 mL). The pooled organic fractions are transferred to liquid scintillation vials, dried under nitrogen, dissolved in Aquasol scintillation fluid (7 ml), and radioactivity is quantified by liquid scintillation counting. Inhibition of fatty acid synthesis by the test compound is expressed as a relative percent inhibition of measured incorporation of [2-^14C]acetate into saponifiable lipids during the interval between [2-^14C]acetate injection and CO2 asphyxiation in animals receiving test compound, compared to control animals receiving only the vehicle.
Compounds of the present invention, and salts thereof, were evaluated for inhibition of fatty acid synthesis as described above.

[3] = test system: A2780 human ovary cancer cells; experiment: MTT Cell Proliferation Assay; assay type: cell-based; conditions: 72 hours, read-out: Percent of Control A2780
Method: (§3) The anti-proliferative activity of test compounds against human tumor cell lines is evaluated in vitro using the ATCC's MTT Cell Proliferation Assay (Catalog No. 30-100K). Cell lines are grown using media, serum, and culture conditions recommended by the ATCC. Stock cultures are allowed to grow to 70-80% confluence. Cells are seeded into 96-well culture plates at a predetermined density on day 0 in complete medium (0.1 mL). Plates are placed in a humidified incubator at 37° C. with 5% CO2 and 95% HEPA filtered room air for 24 hours. At this point compound (0.1 mL of 2× stock (in media)) is added to the indicated wells and the plates are returned to the incubator for 72 hours. Cell proliferation is measured by addition of MTT reagent to each well and incubated for an additional 4 hours, followed by addition of cell lysis/MTT solublization reagent and incubating overnight. […] Results are expressed as percent of control cells versus compound concentration. Compounds of the present invention, and salts thereof, were evaluated for anti-proliferative activity as described above.

[4] = test system: MDA-MB-231 human breast cancer cells; experiment: MTT Cell Proliferation Assay; assay type: cell-based; conditions: 72 hours, read-out: Percent of Control MDA-MB-231
Method: as §3

[5] = test system: HCT-116 human colon cancer cells; experiment: MTT Cell Proliferation Assay; assay type: cell-based; conditions: 72 hours, read-out: Percent of Control HCT-116
Method: as §3

[6] = test system: PC-3 human prostate cancer cells; experiment: MTT Cell Proliferation Assay; assay type: cell-based; conditions: 72 hours, read-out: Percent of Control PC-3
Method: as §3

Sequence of uACC (Ustilago maydis ACC) (A0A0D1DYD5 entry or part of it): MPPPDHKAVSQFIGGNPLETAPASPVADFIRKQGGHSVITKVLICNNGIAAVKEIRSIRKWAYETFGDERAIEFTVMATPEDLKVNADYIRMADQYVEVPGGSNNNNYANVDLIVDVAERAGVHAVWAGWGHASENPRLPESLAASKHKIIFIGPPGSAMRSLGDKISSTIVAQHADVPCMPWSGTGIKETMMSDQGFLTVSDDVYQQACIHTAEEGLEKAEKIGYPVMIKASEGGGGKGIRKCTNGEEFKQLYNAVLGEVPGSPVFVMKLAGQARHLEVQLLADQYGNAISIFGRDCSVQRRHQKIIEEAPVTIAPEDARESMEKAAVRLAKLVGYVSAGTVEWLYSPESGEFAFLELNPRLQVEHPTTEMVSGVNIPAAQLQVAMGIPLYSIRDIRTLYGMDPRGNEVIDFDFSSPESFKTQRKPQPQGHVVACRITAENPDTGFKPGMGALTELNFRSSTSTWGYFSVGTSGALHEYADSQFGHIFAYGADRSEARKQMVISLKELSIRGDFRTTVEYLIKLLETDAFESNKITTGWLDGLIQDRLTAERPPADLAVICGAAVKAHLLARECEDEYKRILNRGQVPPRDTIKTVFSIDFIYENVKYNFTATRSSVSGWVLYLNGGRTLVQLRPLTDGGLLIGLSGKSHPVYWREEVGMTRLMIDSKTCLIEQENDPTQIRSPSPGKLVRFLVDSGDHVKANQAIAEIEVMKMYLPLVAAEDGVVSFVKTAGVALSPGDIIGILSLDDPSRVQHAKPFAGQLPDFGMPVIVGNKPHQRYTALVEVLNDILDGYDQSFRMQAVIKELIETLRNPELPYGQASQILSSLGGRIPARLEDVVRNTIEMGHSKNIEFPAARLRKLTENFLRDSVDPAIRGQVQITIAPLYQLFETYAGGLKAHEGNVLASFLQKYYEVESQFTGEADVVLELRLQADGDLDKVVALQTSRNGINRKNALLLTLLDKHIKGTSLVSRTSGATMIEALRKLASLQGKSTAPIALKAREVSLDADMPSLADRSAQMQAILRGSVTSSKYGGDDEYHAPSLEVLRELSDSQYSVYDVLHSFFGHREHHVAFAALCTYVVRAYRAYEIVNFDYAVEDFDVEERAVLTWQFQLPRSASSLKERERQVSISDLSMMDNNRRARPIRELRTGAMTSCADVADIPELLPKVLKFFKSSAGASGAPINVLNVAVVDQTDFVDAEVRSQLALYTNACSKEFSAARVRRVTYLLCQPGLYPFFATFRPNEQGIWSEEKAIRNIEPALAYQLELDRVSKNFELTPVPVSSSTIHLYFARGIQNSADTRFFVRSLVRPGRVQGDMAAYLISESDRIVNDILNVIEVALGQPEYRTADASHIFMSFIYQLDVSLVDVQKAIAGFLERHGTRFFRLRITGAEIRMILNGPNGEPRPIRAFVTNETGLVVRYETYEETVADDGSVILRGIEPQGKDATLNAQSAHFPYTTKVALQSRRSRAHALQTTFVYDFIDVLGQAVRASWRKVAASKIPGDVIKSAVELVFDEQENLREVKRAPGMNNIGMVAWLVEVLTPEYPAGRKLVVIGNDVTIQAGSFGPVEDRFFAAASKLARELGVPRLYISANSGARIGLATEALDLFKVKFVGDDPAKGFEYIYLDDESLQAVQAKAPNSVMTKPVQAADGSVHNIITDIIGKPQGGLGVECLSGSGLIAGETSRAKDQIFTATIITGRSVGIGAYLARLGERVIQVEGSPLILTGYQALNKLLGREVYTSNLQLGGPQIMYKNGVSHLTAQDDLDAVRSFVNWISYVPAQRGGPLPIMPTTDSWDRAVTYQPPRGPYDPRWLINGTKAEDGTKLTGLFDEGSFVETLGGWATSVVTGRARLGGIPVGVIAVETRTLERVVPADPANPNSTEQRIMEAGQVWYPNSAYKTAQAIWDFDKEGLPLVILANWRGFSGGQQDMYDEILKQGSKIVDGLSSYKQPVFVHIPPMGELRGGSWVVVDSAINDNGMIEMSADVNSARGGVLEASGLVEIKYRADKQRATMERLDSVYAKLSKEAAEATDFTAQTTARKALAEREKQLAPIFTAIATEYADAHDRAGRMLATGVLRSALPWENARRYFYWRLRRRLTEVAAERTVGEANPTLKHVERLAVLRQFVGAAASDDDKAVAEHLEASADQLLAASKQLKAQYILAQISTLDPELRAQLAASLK
T2 sequence (O00763 149-2458 limits assumed): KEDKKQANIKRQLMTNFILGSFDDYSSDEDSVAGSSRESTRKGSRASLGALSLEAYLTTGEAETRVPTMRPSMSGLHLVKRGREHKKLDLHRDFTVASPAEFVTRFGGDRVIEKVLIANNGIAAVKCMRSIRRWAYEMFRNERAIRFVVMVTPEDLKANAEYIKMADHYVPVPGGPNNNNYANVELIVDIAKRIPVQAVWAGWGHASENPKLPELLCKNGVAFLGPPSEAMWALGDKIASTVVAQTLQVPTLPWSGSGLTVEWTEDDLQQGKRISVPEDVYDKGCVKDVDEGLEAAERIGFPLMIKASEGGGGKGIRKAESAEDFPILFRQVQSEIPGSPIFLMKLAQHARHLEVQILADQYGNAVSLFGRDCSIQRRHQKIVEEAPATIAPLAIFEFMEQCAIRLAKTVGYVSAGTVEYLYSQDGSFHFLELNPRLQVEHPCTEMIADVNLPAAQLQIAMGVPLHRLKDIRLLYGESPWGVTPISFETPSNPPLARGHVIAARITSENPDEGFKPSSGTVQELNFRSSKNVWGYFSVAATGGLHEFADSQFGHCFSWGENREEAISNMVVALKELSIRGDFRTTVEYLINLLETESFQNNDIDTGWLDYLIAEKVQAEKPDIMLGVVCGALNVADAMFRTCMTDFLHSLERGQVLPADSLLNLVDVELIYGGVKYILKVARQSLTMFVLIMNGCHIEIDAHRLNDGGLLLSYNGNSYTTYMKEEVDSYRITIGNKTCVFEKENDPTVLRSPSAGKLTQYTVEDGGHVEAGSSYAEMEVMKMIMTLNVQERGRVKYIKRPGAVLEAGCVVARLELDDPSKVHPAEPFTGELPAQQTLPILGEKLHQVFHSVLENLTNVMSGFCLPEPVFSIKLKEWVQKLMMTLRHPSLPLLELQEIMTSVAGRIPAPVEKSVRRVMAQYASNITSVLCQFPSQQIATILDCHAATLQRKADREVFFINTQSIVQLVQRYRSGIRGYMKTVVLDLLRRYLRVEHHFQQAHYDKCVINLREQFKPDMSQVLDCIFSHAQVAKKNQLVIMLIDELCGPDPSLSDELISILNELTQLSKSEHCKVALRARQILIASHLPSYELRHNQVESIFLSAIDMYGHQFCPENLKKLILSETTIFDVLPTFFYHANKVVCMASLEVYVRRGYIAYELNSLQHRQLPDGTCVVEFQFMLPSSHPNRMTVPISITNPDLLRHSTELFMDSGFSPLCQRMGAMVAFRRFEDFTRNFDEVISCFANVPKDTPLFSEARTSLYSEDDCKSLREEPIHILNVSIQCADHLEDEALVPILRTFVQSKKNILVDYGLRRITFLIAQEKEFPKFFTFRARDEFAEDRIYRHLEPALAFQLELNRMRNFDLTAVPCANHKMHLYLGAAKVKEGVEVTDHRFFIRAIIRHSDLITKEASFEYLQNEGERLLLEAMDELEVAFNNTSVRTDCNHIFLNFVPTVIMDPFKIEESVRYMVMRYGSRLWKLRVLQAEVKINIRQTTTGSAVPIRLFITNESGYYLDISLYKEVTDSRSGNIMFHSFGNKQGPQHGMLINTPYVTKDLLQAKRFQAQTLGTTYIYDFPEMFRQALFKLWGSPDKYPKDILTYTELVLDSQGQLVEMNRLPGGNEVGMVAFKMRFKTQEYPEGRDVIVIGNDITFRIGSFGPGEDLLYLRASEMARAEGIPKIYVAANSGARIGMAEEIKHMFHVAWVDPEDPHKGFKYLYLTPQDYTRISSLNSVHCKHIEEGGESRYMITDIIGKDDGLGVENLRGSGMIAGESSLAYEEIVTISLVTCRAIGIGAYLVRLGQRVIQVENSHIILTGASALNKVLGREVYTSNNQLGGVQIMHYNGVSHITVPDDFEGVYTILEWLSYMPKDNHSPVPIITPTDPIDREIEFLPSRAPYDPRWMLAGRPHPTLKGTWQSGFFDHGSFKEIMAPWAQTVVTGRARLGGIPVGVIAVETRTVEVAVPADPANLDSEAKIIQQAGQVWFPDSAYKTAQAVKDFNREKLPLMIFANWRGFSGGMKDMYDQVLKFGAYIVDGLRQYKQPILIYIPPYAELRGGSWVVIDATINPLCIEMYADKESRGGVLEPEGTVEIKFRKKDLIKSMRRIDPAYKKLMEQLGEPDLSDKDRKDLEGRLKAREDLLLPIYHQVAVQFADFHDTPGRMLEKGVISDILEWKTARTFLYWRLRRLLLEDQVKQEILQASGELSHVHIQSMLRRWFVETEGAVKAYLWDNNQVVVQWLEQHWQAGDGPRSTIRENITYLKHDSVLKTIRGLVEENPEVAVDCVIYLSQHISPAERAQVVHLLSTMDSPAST

Row | SMILES | stimulation of fatty acid oxidation (C2C12 cells; C2C12, 0.2 μM) [%] | stimulation of fatty acid oxidation (C2C12 cells; C2C12, 2 μM) [%] | pIC50 [1] | pIC50 (hACC1) | pIC50 (hACC2) | inhibition at 1 µM (HepG2 cells; HepG2, 1 μM) [%] | inhibition at 10 µM (HepG2 cells; HepG2, 10 μM) [%] | pIC50 (hACC1-CT) | Percent Inhibition at 30 mg/Kg [2] [%] | activity at 3.3 µM [3] [%] | activity at 10 µM [3] [%] | activity at 3.3 µM [4] [%] | activity at 10 µM [4] [%] | activity at 3.3 µM [5] [%] | activity at 10 µM [5] [%] | activity at 3.3 µM [6] [%] | activity at 10 µM [6] [%] | Percent Inhibition at 10 mg/Kg [2] [%]
1 | Cc1c(C(=O)N2CCC3(CC2)NC(=O)c2ccccc2O3)[nH]c2ccc(F)cc12 [Compound 6, 1′-[(5-Fluoro-3-methyl-1H-indol-2-yl)carbonyl]spiro[2H-1,3-benzoxazin-2,4′-piperidin]-4-(3H)-one] | 260 | 299 | 4.40 | 5.64 | 5.70 | 14 | 32 | – | – | – | – | – | – | – | – | – | – | –
2 | COc1ccc(OC)c2[nH]c(C(=O)N3CCC4(CC3)NC(=O)c3ccccc3O4)cc12 [Compound 7, 1′-[(4,7-Dimethoxy-1H-indol-2-yl)carbonyl]spiro[2H-1,3-benzoxazin-2,4′-piperidin]-4-(3H)-one] | – | – | 4.70 | 5.96 | 6.07 | – | – | 5.92 | – | – | – | – | – | – | – | – | – | –
3 | CCOc1ccc2c(c1)C(=O)NC1(CCN(C(=O)c3[nH]c4c(OC)cccc4c3C)CC1)O2 [Compound 144] | – | – | 4.85 | 7.21 | 7.06 | – | – | – | 9 | 65 | 25.1 | 88.9 | 34.5 | 64.9 | 39.1 | 76.5 | 67.2 | –
4 | COc1cc(C(=O)N2CCC3(CC2)NC(=O)c2cc(OC(F)(F)F)ccc2O3)nc2c(OC)cccc12 [Compound 172] | – | – | – | 8.15 | – | – | – | – | – | 97.4 | 65.5 | 54.1 | 29.5 | 61.4 | 41.6 | 63 | 55.7 | 5
5 | COc1cc(C(=O)N2CCC3(CC2)NC(=O)c2cc(C(C)C)ccc2O3)nc2c(OC)cccc12 [Compound 186] | – | – | – | 8.70 | 8.70 | – | – | – | 78 | 59.5 | 52.1 | 74.2 | 39.2 | 53.6 | 41.8 | 48.9 | 33.2 | 55
6 | COc1cc(C(=O)N2CCC3(CC2)NC(=O)c2cc(N4CCOCC4)ccc2O3)nc2c(OC)cccc12 [Compound 196] | – | – | – | 6.70 | 7.68 | – | – | – | – | 81.6 | 56.4 | 73.7 | 56.1 | 63.6 | 58.5 | 50.7 | 39 | 67
